Source: patent US20110218191A1, “USE OF MELOXICAM FOR THE LONG TERM-TREATMENT OF KIDNEY DISORDERS IN CATS” (BOEHRINGER INGELHEIM VETMEDICA GMBH, priority 2010, published 2011)

How the values were obtained:
[1] = system: aged cats with chronic kidney disease (CKD), IRIS stage 1-3; test: Retrospective case-controlled study: long-term meloxicam in aged cats with CKD (Group A) vs age and IRIS matched untreated controls (Group C); type: in vivo, cat
Procedure: The diagnosis of osteoarthritis or spondylosis deformans had been made based upon any two of the following: owner noted mobility changes, physical examination findings or radiographic changes. […] In addition, cats were only included if serum biochemistry, urine analysis and body weight had been regularly monitored. […]
In house urine specific gravity was determined with a Reichert Vet360 refractometer. Urine specific gravity was regularly compared to that measured by the same reference laboratory. […]

[2] = system: aged cats without chronic kidney disease (no-CKD); test: Retrospective case-controlled study: long-term meloxicam in aged cats without CKD (Group B) vs age matched untreated controls (Group D); type: in vivo, cat
Source text: The medical records of a feline-only practice were searched for cats with OA being treated with meloxicam during a 4 year period. A diagnosis of OA was based upon any two of the following: owner noted mobility changes and/or physical examination findings or radiographic changes. Cats included were older than 7 years and treated with meloxicam for a duration of more than 6 months. Biochemistry, urinalysis and body weight were regularly monitored. The progression of renal disease in the aged non-renal and renal group treated was compared to age matched and IRIS matched untreated controls from the same clinic. IRIS staging of CKD follows specific guidelines on the diagnosis and assessment of progression of renal disease in small animals as described below. Animals are being divided into […] categories according to the stage of their disease, see Table 1 (iris-kidney.com).
The database of a feline-only practice in suburban Melbourne was searched for cats which had been treated for chronic musculoskeletal diseases with meloxicam (Metacam® oral suspension, Boehringer Ingelheim) during a 4 year period. The diagnosis of osteoarthritis or spondylosis deformans had been made based upon any two of the following: owner noted mobility changes, physical examination findings or radiographic changes. The inclusion criteria included cats greater than 7 years old which had been treated continuously with meloxicam for a duration of more than 6 months and which had complete medical records available for review. In addition, cats were only included if serum biochemistry, urine analysis and body weight had been regularly monitored.
Young cats were excluded, as were cats with no pre-treatment renal parameter measurements. In addition cats were also excluded if the owner could not be contacted to check that the cats were still receiving daily treatment with meloxicam.
Age, breed, sex, concomitant diseases and medications as well as date treatment commenced, treatment duration and daily dose of meloxicam were recorded.
The majority of serum biochemistry determination was via external reference laboratory (Normal Range: Creatinine 0.08-0.20 mmol/L) and the remainder with an in-house IDEXX biochemistry and electrolyte machine (Normal Range: Creatinine 71-212 umol/L). In house urine specific gravity was determined with a Reichert Vet360 refractometer. Urine specific gravity was regularly compared to that measured by the same reference laboratory. Urine sediment examination and dipstick determination was carried out in-house with necessary urine cultures and urine protein. Urine creatinine determination was carried out at the same reference laboratory. […]
The median age of the renal and non-renal treated cats, median treatment duration and median maintenance dose was calculated. […]

progression of creatinine ([2]; meloxicam treated no-CKD group (B) vs untreated no-CKD group): no significant difference
progression of renal parameters ([2]; non-renal group treated with meloxicam (B) vs non-renal group not treated, median maintenance dose 0.02 mg/kg daily, median treatment duration 327 days): no differences
Compound: Cc1cnc(NC(=O)C2=C(O)c3ccccc3S(=O)(=O)N2C)s1 [meloxicam]
differences from baseline in body weight ([1]; CKD-meloxicam group (A) vs age and IRIS matched untreated CKD group (C), time adjusted AUC, Wilcoxon rank-sum-test): no statistically significant differences
median maintenance dose after dose titration to the lowest effective dose ([1]; renal treated group (A), oral suspension): 0.02 mg/kg daily
differences from baseline in body weight ([2]; no-CKD meloxicam group (B) vs untreated no-CKD group (D), time adjusted AUC, Wilcoxon rank-sum-test): no statistically significant differences
median maintenance dose after dose titration to the lowest effective dose ([2]; non-renal treated group (B), oral suspension): 0.02 mg/kg daily
